# Reference: US20230382916A1, “HETEROARYL HETEROCYCLIC COMPOUNDS AND USES THEREOF” (HUTCHISON MEDIPHARMA LIMITED, priority 2020, published 2023)
# Assays:
# [1] = molecular target: BTK recombinant protein (Homo sapiens (Human), UniProt Q06187); assay: Determination of biochemical BTK (Z'-LYTE kinase assay); details: 32 μM ATP
# Source text: BTK recombinant protein: Invitrogen, Cat #PV3363;
# Z′-LYTE® kinase test kit-tyrosine 1 peptide: Invitrogen, Cat #PV3190;
# Z′-LYTE® biochemical assay employs a fluorescence resonance energy transfer (FRET)-based, coupled-enzyme format and is based on the differential sensitivity of phosphorylated and non-phosphorylated peptides to proteolytic cleavage. Both ends of the short peptide substrate are labeled with two fluorescent groups to form a FRET paired combination. In the primary reaction (the Kinase Reaction), the kinase transfers the γ-phosphate of ATP to a single […] residue on the short peptide substrate. In the secondary reaction (the development reaction), the non-phosphorylated short peptides were recognized and cleaved by a site-specific protease (the development reagent). Phosphorylated short peptides can resist such cleavage. Cleavage of short peptides can disrupt the donor (such as coumarin) and receptor fluorophores (fluorescein) on the short peptides, while the phosphorylated short peptides can maintain FRET. The calculation method of the ratio is as follows, and the ratio of the respective emission signals generated by the donor fluorophores emitted (after excitation at 400 nm) to the receptors is calculated. Emission signal ratio=emitted light by coumarin (445 nm)/emitted light by fluorescein (520 nm). If the FRET short peptide is phosphorylated (such as no kinase inhibitor), the emitted light ratio will remain in a lower level. If the FRET short peptide is non-phosphorylated (such as kinase inhibitor), the emitted light ratio will be in a higher level. In this way, the inhibitory effects of different compound inhibitors on BTK kinase activity would be distinguished.
# The experiment was carried out according to the instructions of the Z′-LYTE® kinase test kit-tyrosine 1 peptide. Reagent preparation: 1.33× kinase buffer: 5× kinase buffer was diluted with water to 1.33× kinase buffer; an enzyme solution: the kinase was dissolved in 1.33× kinase buffer with the final working concentration being 3.32 nM; a short peptide solution: a short peptide stock solution (1 mM dissolved in DMSO) was dissolved in 1.33× kinase buffer with the final working concentration being 2 μM; Z′-LYTE Tyr01 phosphorylated short peptide solution, 0.6 μl of stock solution (1 mM dissolved in DMSO) was dissolved in 149.4 μl of 1.33× kinase buffer; an ATP solution: an ATP stock solution (10 mM aqueous solution) was dissolved in 1.33× kinase buffer with the final working concentration being 32 μM; a color-developing solution: color-developing solution B was dissolved in color-developing buffer with the final working concentration being 1× color-developing solution; 4× compound preparation: the compound was diluted in 3-fold gradient concentration to finally obtain 4% DMSO aqueous solution containing different concentrations of the compound, with the final working concentration being 3000, 1000, 333.33, 111.11, 37.04, 12.35, 4.12, 1.37 nM, 8 concentration points in total.
# Specific steps of the experiment: In the experiment, there were three control groups, each with 8 replicate wells, which were C1 100% inhibition group (no ATP), C2 0% inhibition group (with ATP), and C3 100% phosphorylation group, respectively. 2.5 μl of serially diluted compound was added to each well of a 384-well plate, with double replicate wells, and 4% DMSO solution was added to wells C1, C2, and C3. After that, except for wells C3, 2.5 μl of BTK enzyme solution was added to each remaining well, which was left to stand at 4° C. for 30 minutes. After that, except for wells C3, 2.5 μl of short peptide solution was added to each well, and 5 μl of phosphorylated short peptide solution was added to each of wells C3. 2.5 μl of 1.33× kinase buffer was added to each of wells C1 and C3, and 2.5 μl of ATP solution was added to each of the remaining wells. The wells were centrifuged transiently, and the plate was shaken at 1000 rpm for 30 seconds to perform transient centrifuge. […]
# [2] = Stability test in liver microsomes (mouse); type: in vitro ADME; details: mouse liver microsomes 0.5 mg/mL, 1 μM compound
# Description: (§1) Both male CD-1 mouse pooled liver microsomes and male SD rat pooled liver microsomes were purchased from BioreclamationIVT Corporation, USA.
# (§2) The test compound stock solution was diluted with an organic solvent (usually a mixture of acetonitrile, methanol and water with various ratios, depending on the solubility of the compound, if necessary, 1 N hydrochloric acid or 1 N sodium hydroxide would be added to facilitate solubilization) to the 0.1 mM (the final concentration of the compound in the reaction system was 1 μM) and the concentration percentage of the organic solvents in the incubation system no more than 1% (wherein the percentage of DMSO was required to be no more than 0.1%). An appropriate amount of 100 mM NADP, 500 mM G-6-P and 100 Unit/mL G-6-PDH were mixed and diluted with ultrapure water (the final system contains 1 mM NADP, 5 mM G-6-P and 1 Unit/mL G-6-PDH), pre-incubated in a 37° C. water bath for 10 minutes and then placed on ice for use as a NADPH regeneration solution. 20 mg/mL liver microsomes solution and 200 mM phosphate buffer were mixed, and diluted with ultrapure water to give a liver microsomes solution containing 2.5 mg/mL liver microsomes (the final concentration of the reaction system is 0.5 mg/mL) and 50 mM phosphate buffer. The diluted liver microsomes solution was mixed with 0.1 mM compound solution, a mixture of 100 mM EDTA, 300 mM MgCl2 solution, 200 mM phosphate buffer (the final system was 3 mM MgCl2, 1 mM EDTA and 50 mM phosphate buffer) and water in an appropriate volume was added. Finally, the NADPH regeneration solution was added, then the reaction solution was placed in a 37° C. water bath to start the reaction (the reaction time was 30 minutes), and the reaction was stopped by adding the ice-cold acetonitrile reaction stopping solution containing the internal standard. The 0-minute sample was not incubated in a 37° C. water bath, and its difference from the 30-minute sample further lies in that the ice-cold acetonitrile reaction stopping solution containing the internal standard was added first, and then the NADPH regeneration solution was added. The sample added with the reaction stopping internal standard solution was vortexed and mixed well, and then centrifuged at 4400 rpm for 10 minutes. The supernatant was taken and diluted ten times with 50% methanol for LC-MS/MS analysis.
# (§3) LC-MS/MS was used to determine the concentration of the compound in the sample. The percentage of the remaining compound after 30 minutes of incubation comparing with that in the 0-minute sample was calculated using the peak area ratio of the compound to the internal standard as an indicator, to evaluate the metabolic stability of the compound.
# [3] = Stability test in liver microsomes (rat); type: in vitro ADME; details: rat liver microsomes 0.5 mg/mL, 1 μM compound
# Description: as §1, §2, §3
# [4] = tested on: rat arthritis model induced by type II collagen; assay: Rat arthritis model induced by type II collagen (CIA), paw volume; type: in vivo; details: for inhibition ratio of area under the curve (IRAUC) of paw swelling: Day 13 to Day 19
# Description: An appropriate amount of bovine type II collagen (CII, Chondrex (Redmond, WA, USA), Cat #20021) was weighed and dissolved in 0.1 mole of acetic acid (SPGC Sinopharm Chemical Reagent Co., Ltd (Shanghai, P.R. China), Cat #: 10000218.), which was formulated into a solution with a concentration of 6 mg/mL, stirred at 4° C. overnight, and added with an equal volume of Freund's incomplete adjuvant (Sigma-Aldrich. (St. Louis, MO, USA), Cat #: SLBW0366.), fully emulsified to prepare an emulsion with a CII concentration of 3 mg/mL.
# Female Lewis rats were purchased from Beijing Vital River Laboratory Animal Technology Co., Ltd. (certificate number 20200928Aazz0619000579, initial body weight of 110-130 grams), and 6 rats were randomly selected as a normal group; and all of the remaining rats were immunized. In the first immunization on day 0, the rats except those in the normal group were anesthetized with isoflurane (Hebei Yipin Pharmaceutical Co., Ltd., Lot: C002170601.), and then disinfected with 75% alcohol, and 0.2 mL of emulsion was injected intradermally at the base of the tail thereof. A second challenge was carried out on day 7, and 0.2 mL of emulsion was intradermally injected using the same method. Once the animals developed symptoms on day 10, the incidence conditions thereof were closely monitored.
# After grouping, the normal group was not administered, and the rats in the other groups were administered with the control vehicle, 0.25 mg/kg and 4 mg/kg of the reference GDC-0853, and each dose of compound 1 orally once a day until the end of the experiment.
# The paw volume was measured on day 10 after immunization, and the left and right hind paw volumes (V) were measured every day after the paw volume increase was detected.
# The arthrosis paw volumes of the left and right hind limbs of each animal were measured, and the average paw volume (APV) was calculated according to the following formula:
# Average paw volume APV=(Vleft+Vright)/2
# The average arthrosis paw volume of each animal before administration was used as the baseline (or considered […] of inflammation). The averaged paw swelling (APS) of each animal is calculated according to the following formula, wherein, APVd1 is the average paw volume of the animal administered on day 1, and APVdt is the average paw volume of the animal administered on day t:
# The averaged paw swelling APSdt=(APVdt−APVd1)
# The area under the curve (AUC) of the average paw volume swelling is the area under the curve of the arthrosis score swelling calculated by the trapezoid method, and the calculation formula is:
# AUCAPS=½×(APSd1+APSd2)×(d2−d1)+½×(APSd2+APSd3)×(d3−d2)+ . . . +½×(APSdn+APSd(n-1))×(dn−dn-1).
# Inhibition ratio IRAUC%=(Mean AUCAPS in the model group−AUCAPS in the drug-treated group)/(Mean AUCAPS in the model group−Mean AUCAPS in the normal group)×100%.
# [5] = tested on: anti-IgD antibody-induced B cell activation in mice whole blood; assay: In vivo efficacy of the inhibitory effect on BTK target: anti-IgD antibody-induced B cell activation in mice whole blood after oral dosing; set-up: species or system mouse; details: 20 mg/kg oral single dose, 16 h
# Description: Objects: B cells in mice whole blood were induced and activated by the anti-IgD antibody, and the inhibitory effect of the compound of the present invention on B cell activation in vivo was studied, so as to determine the inhibitory effect of the compound of the present invention on the BTK target in vivo.
# Methods: C57BL/6 mice (female, 18-20 g, purchased from Shanghai Lingchang Biotechnology Co., Ltd.) were grouped according to Table 1.
# The animals of each group were administered, then were placed in CO2 for anesthesia at designated time points, blood samples were taken from […] via retro-orbital bleeding, and heparin was used for anticoagulation; 90 μL of whole blood was taken from mice of each group, and added to a 96 well culture plate, and anti-mouse IgD antibody (BIO-RAD, Cat #MCA4693) was added to each well to a final concentration of […] (respectively for each drug-treated group and anti-IgD antibody-inducted vehicle group); in addition, 90 μL of whole blood of mice in the vehicle group was taken and added to the 96-well culture plate, and PBS (phosphate buffer, GIBCO, Cat #C20012500BT) was added to each well to a final concentration of 0.01 μg/L (namely, the vehicle control group); Each group was mixed well and incubated in a 37° C./5% CO2 incubator for 4 hours. In addition, the blood of mice in the drug-treated group was centrifuged to separate plasma for blood concentration analysis.
# B cell activation ratio=percentage of CD69^+CD19^+ double positive B cells/percentage of CD19^+ single positive B cells
# Inhibition ratio=(percentage of B cell activation ratio in anti-IgD antibody-induced vehicle group−percentage of B cell activation ratio in drug-treated group)/(percentage of B cell activation ratio in anti-IgD antibody−induced vehicle group-percentage of B cell activation ratio in vehicle control group)×100%
# All data are represented by mean±standard error. For the comparison between each drug-treated group and the anti-IgD antibody-induced vehicle group, p value was calculated by Graphpad Prism using one-way ANOVA analysis of variance and Dunnett's test, and for the comparison between each drug-treated group, p value was calculated by using unpaired t test.
# BTK recombinant protein, sequence (Q06187 whole entry): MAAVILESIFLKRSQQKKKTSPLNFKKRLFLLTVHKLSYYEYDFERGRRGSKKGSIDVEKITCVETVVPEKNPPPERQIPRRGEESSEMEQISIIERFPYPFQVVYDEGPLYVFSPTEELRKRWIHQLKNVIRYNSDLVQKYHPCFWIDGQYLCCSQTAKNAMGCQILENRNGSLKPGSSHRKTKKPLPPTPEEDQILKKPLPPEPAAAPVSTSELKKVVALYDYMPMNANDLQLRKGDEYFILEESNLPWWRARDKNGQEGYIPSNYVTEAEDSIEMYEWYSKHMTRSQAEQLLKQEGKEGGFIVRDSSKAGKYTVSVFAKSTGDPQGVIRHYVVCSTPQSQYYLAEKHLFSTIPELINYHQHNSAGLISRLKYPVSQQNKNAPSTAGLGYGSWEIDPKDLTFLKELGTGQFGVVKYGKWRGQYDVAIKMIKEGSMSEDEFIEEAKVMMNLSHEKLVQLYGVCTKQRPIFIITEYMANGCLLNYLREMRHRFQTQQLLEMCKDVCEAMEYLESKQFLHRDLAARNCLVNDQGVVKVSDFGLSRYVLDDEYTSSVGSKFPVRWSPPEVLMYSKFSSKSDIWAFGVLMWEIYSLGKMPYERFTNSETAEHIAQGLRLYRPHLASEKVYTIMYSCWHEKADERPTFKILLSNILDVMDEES
Structure (SMILES),IC50 [1] [nM],"MLM, percentage of the remaining compound after 30 minutes of incubation [2] [%]","RLM, percentage of the remaining compound after 30 minutes of incubation [3] [%]",effect on paw volume compared with vehicle control group ([4]; 0.25 mg/kg oral QD),inhibition ratio of area under the curve (IRAUC) of paw swelling ([4]; 0.25 mg/kg oral QD) [%],effect on paw volume compared with vehicle control group ([4]; 4 mg/kg oral QD),inhibition ratio of area under the curve (IRAUC) of paw swelling ([4]; 4 mg/kg oral QD) [%],Inhibition ratio (%) on B cell activation [5] [%],B cell activation ratio (the population of activated B cells in total B cells) ([5]; mean ± standard error)
"C[C@H]1CNC[C@H](C)N1c1ccc(Nc2cc(-c3ccnc(-n4ccn5c6c(cc5c4=O)CC(C)(C)C6)c3CO)cn(C)c2=O)nc1 [Compound 5, 2-(5-((5-((2S,6S)-2,6-dimethylpiperazin-1-yl)pyridin-2-yl)amino)-3′-(hydroxymethyl)-1-methyl-6-oxo-1,6-dihydro-[3,4′-bipyridin]-2′-yl)-7,7-dimethyl-7,8-dihydro-2H-cyclopenta[4,5]pyrrolo[1,2-a]pyrazin-1(6H)-one]",8,67.5,95.4,,,,,,
"C[C@H]1CN(C2COC2)CCN1c1ccc(Nc2cc(-c3ccnc(N4CCn5c(cc6c5CC(C)(C)C6)C4=O)c3CO)cn(C)c2=O)nc1 [GDC-0853, fenebrutinib, reference compound]",,76.3,81.0,no improvement effect,−6.4,significantly reduced,144.7,9,29.3 ± 6.7
"C[C@H]1CN(C2COC2)C[C@H](C)N1c1ccc(Nc2cc(-c3ccnc(-n4ncn5c6c(cc5c4=O)CC(C)(C)C6)c3CO)cn(C)c2=O)nc1 [Compound 4, 2-(5-((5-((2S,6S)-2,6-dimethyl-4-(oxetan-3-yl)piperazin-1-yl)pyridin-2-yl)amino)-3′-(hydroxymethyl)-1-methyl-6-oxo-1,6-dihydro-[3,4′-bipyridin]-2′-yl)-7,7-dimethyl-7,8-dihydro-2H-cyclopenta[4,5]pyrrolo[1,2-d][1,2,4]triazin-1(6H)-one]",5,90.9,97.4,,,,,,
